Results published in PubChem BioAssay AID328 (DTP/NCI, 2004).
Where “and” joins values, the source holds several entries; their conditions need not be identical. Equal entries are not always repeated. Inconclusive results and toxic doses are left out.

System: BDF1 mice, P388 leukemia ip, median survival T/C
Test: NCI In Vivo Anticancer Drug Screen. Data for tumor model P388 Leukemia (intraperitoneal) in B6D2F1 (BDF1) mice
Settings: endpoint: median survival time, higher = longer survival
Outline: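 Read-out is survival of treated animals expressed relative to the vehicle group, as a T/C ratio.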

[1] = dose: 50.0 mg/kg/injection, schedule: Q01DX009 (ip), vehicle: Klucel (hydroxypropylcellulose) (HPC)
[2] = dose: 12.5 mg/kg/injection, schedule: Q01DX009 (ip), vehicle: saline with Tween-80
[3] = dose: 12.5 mg/kg/injection, schedule: Q01DX009 (ip), vehicle: saline
[4] = dose: 50.0 mg/kg/injection, schedule: Q01DX009 (ip), vehicle: saline
[5] = dose: 50.0 mg/kg/injection, schedule: Q04DX003 (ip), vehicle: saline
[6] = dose: 100.0 mg/kg/injection, schedule: Q01DX009 (ip), vehicle: saline
[7] = dose: 100.0 mg/kg/injection, schedule: Q04DX003 (ip), vehicle: saline
[8] = dose: 25.0 mg/kg/injection, schedule: Q01DX009 (ip), vehicle: saline
[9] = dose: 50.0 mg/kg/injection, schedule: Q04DX003 (ip), vehicle: saline with Tween-80
[10] = dose: 100.0 mg/kg/injection, schedule: Q04DX003 (ip), vehicle: saline with Tween-80
[11] = dose: 150.0 mg/kg/injection, schedule: Q04DX003 (ip), vehicle: saline

CC1(CCC(=O)/C=C/c2ccccc2)CCC/C(=C/c2ccccc2)C1=O (configuration not stated)
T/C (dose: 12.5 mg/kg/injection, schedule: Q01DX009 (ip), vehicle: Klucel (hydroxypropylcellulose) (HPC)): 110 % of control
T/C (dose: 25.0 mg/kg/injection, schedule: Q01DX009 (ip), vehicle: Klucel (hydroxypropylcellulose) (HPC)): 115 % of control
T/C [1]: 110 % of control
T/C (dose: 75.0 mg/kg/injection, schedule: Q01DX009 (ip), vehicle: Klucel (hydroxypropylcellulose) (HPC)): 100 % of control
T/C (dose: 115.0 mg/kg/injection, schedule: Q01DX009 (ip), vehicle: Klucel (hydroxypropylcellulose) (HPC)): 100 % of control
T/C (dose: 170.0 mg/kg/injection, schedule: Q01DX009 (ip), vehicle: Klucel (hydroxypropylcellulose) (HPC)): 95 % of control

Cn1c(=O)c2[nH]c(CN(CCCl)CCCl)nc2n(C)c1=O
T/C (dose: 0.88 mg/kg/injection, schedule: Q04DX003 (ip), vehicle: saline with Tween-80): 100 % of control
T/C (dose: 1.32 mg/kg/injection, schedule: Q04DX003 (ip), vehicle: saline with Tween-80): 109 % of control
T/C (dose: 2.0 mg/kg/injection, schedule: Q04DX003 (ip), vehicle: saline with Tween-80): 119 % of control
T/C (dose: 2.4 mg/kg/injection, schedule: Q01DX009 (ip), vehicle: saline with Tween-80): 154 % of control
T/C (dose: 3.7 mg/kg/injection, schedule: Q01DX009 (ip), vehicle: saline with Tween-80): 160 % of control
T/C (dose: 5.56 mg/kg/injection, schedule: Q01DX009 (ip), vehicle: saline with Tween-80): 163 % of control and 178 % of control
T/C (dose: 8.33 mg/kg/injection, schedule: Q01DX009 (ip), vehicle: saline with Tween-80): 172 % of control
T/C [2]: 201 % of control

c1ccc(C2=C([P+](c3ccccc3)(c3ccccc3)c3ccccc3)CCN2)cc1
T/C [2]: 100 % of control

c1cc[c]([Pb]([c]2ccccc2)([c]2ccccc2)[n]2cccc2)cc1
T/C (dose: 3.12 mg/kg/injection, schedule: Q01DX009 (ip), vehicle: saline): 90 % of control
T/C (dose: 6.25 mg/kg/injection, schedule: Q01DX009 (ip), vehicle: saline): 109 % of control
T/C [3]: 109 % of control
T/C (dose: 21.25 mg/kg/injection, schedule: Q04DX003 (ip), vehicle: Klucel (hydroxypropylcellulose) (HPC)): 100 % of control
T/C (dose: 42.5 mg/kg/injection, schedule: Q04DX003 (ip), vehicle: Klucel (hydroxypropylcellulose) (HPC)): 113 % of control

COC(=O)C1C(O)C(C)C(O)C(C)(O)C=C(C)C2=C3C(=C(C)C(=O)c4c(O)c(c(C)c(OC(C)=O)c43)NC(=O)C(C)=C/C=C\C(C)(O)C(O)C(C)C1O)OCO2 (configuration not stated)
T/C [1]: 119 % of control
T/C (dose: 100.0 mg/kg/injection, schedule: Q01DX009 (ip), vehicle: Klucel (hydroxypropylcellulose) (HPC)): 110 % of control
T/C (dose: 200.0 mg/kg/injection, schedule: Q01DX009 (ip), vehicle: Klucel (hydroxypropylcellulose) (HPC)): 116 % of control

CCCC(=O)NO
T/C (dose: 100.0 mg/kg/injection, schedule: Q01DX009 (ip), vehicle: saline sonified): 100 % of control
T/C (dose: 200.0 mg/kg/injection, schedule: Q01DX009 (ip), vehicle: saline sonified): 100 % of control
T/C (dose: 400.0 mg/kg/injection, schedule: Q01DX009 (ip), vehicle: saline sonified): 100 % of control

NC(=O)CC1=NCCc2ccccc21
T/C [4]: 95 % of control
T/C [5]: 100 % of control
T/C [6]: 91 % of control
T/C [7]: 100 % of control
T/C (dose: 200.0 mg/kg/injection, schedule: Q01DX009 (ip), vehicle: saline): 91 % of control
T/C (dose: 200.0 mg/kg/injection, schedule: Q04DX003 (ip), vehicle: saline): 113 % of control

N=[N+]=CC(=O)OCC(N)C(=O)O (configuration not stated)
T/C (dose: 3.13 mg/kg/injection, schedule: Q01DX010 (ip), vehicle: saline): 150 % of control
T/C (dose: 6.25 mg/kg/injection, schedule: Q01DX010 (ip), vehicle: saline): 150 % of control and 165 % of control
T/C (dose: 10.0 mg/kg/injection, schedule: Q01DX010 (ip), vehicle: water): 120 % of control
T/C (dose: 12.5 mg/kg/injection, schedule: Q01DX010 (ip), vehicle: saline): 195 % of control and 200 % of control
T/C (dose: 15.0 mg/kg/injection, schedule: Q01DX010 (ip), vehicle: water): 120 % of control
T/C (dose: 25.0 mg/kg/injection, schedule: Q01DX010 (ip), vehicle: saline): 115 % of control

OCCN1CCN(CC/C=C2/c3ccccc3Sc3ccc(Cl)cc32)CC1
T/C (dose: 5.56 mg/kg/injection, schedule: Q01DX009 (ip), vehicle: saline): 108 % of control
T/C (dose: 8.33 mg/kg/injection, schedule: Q01DX009 (ip), vehicle: saline): 108 % of control
T/C [3]: 120 % of control
T/C [8]: 113 % of control
T/C (dose: 33.0 mg/kg/injection, schedule: Q04DX003 (ip), vehicle: saline): 150 % of control

CCCN1c2ccccc2Sc2ccccc21
T/C (dose: 25.0 mg/kg/injection, schedule: Q04DX003 (ip), vehicle: saline with Tween-80): 100 % of control
T/C [9]: 90 % of control
T/C [10]: 90 % of control
T/C (dose: 200.0 mg/kg/injection, schedule: Q04DX003 (ip), vehicle: saline with Tween-80): 90 % of control

Cc1ccc2oc3ccccc3c(=O)c2c1
T/C (dose: 50.0 mg/kg/injection, schedule: Q01DX001 (ip), vehicle: saline sonified): 95 % of control
T/C (dose: 100.0 mg/kg/injection, schedule: Q01DX001 (ip), vehicle: saline sonified): 95 % of control
T/C (dose: 200.0 mg/kg/injection, schedule: Q01DX001 (ip), vehicle: saline sonified): 95 % of control

C(CC1CO1)CC1OC1CC1CO1 (configuration not stated)
T/C (dose: 65.0 mg/kg/injection, schedule: Q04DX003 (ip), vehicle: saline): 113 % of control
T/C (dose: 67.0 mg/kg/injection, schedule: Q04DX003 (ip), vehicle: saline with Tween-80): 113 % of control
T/C [10]: 122 % of control
T/C [7]: 109 % of control
T/C (dose: 150.0 mg/kg/injection, schedule: Q04DX003 (ip), vehicle: saline with Tween-80): 181 % of control
T/C [11]: 154 % of control
T/C (dose: 225.0 mg/kg/injection, schedule: Q04DX003 (ip), vehicle: saline with Tween-80): 181 % of control

O=[N+]([O-])c1ccc(C[Se]c2ncnc3c2ncn3C2OC(CO)C(O)C2O)cc1 (configuration not stated)
T/C (dose: 12.5 mg/kg/injection, schedule: Q04DX003 (ip), vehicle: saline): 109 % of control
T/C (dose: 25.0 mg/kg/injection, schedule: Q04DX003 (ip), vehicle: saline): 103 % of control
T/C [5]: 96 % of control
T/C [7]: 105 % of control

CC(=O)OCC(=O)[C@@]1(O)CC[C@H]2[C@@H]3C[C@H](F)C4=CC(=O)CC[C@]4(C)[C@H]3[C@@H](O)C[C@@]21C
T/C [2]: 109 % of control
T/C (dose: 25.0 mg/kg/injection, schedule: Q01DX009 (ip), vehicle: saline with Tween-80): 118 % of control
T/C (dose: 50.0 mg/kg/injection, schedule: Q01DX009 (ip), vehicle: saline with Tween-80): 118 % of control

CCOC(=O)C[n+]1ccccc1
T/C [8]: 100 % of control
T/C [4]: 118 % of control
T/C [9]: 90 % of control
T/C (dose: 75.0 mg/kg/injection, schedule: Q04DX003 (ip), vehicle: saline): 104 % of control
T/C [6]: 90 % of control
T/C [10]: 90 % of control
T/C [11]: 109 % of control

COc1cc(C=Nc2cc(Br)c(O)c(Br)c2)ccc1N(CCCl)CCCl
T/C (dose: 3.5 mg/kg/injection, schedule: Q04DX003 (ip), vehicle: Klucel (hydroxypropylcellulose) (HPC)): 163 % of control
T/C (dose: 5.44 mg/kg/injection, schedule: Q04DX003 (ip), vehicle: Klucel (hydroxypropylcellulose) (HPC)): 150 % of control
T/C (dose: 6.2 mg/kg/injection, schedule: Q01DX009 (ip), vehicle: Klucel (hydroxypropylcellulose) (HPC)): 186 % of control
T/C (dose: 8.16 mg/kg/injection, schedule: Q04DX003 (ip), vehicle: Klucel (hydroxypropylcellulose) (HPC)): 172 % of control
T/C (dose: 9.37 mg/kg/injection, schedule: Q01DX009 (ip), vehicle: Klucel (hydroxypropylcellulose) (HPC)): 227 % of control and 259 % of control
T/C (dose: 12.37 mg/kg/injection, schedule: Q04DX003 (ip), vehicle: Klucel (hydroxypropylcellulose) (HPC)): 272 % of control and 220 % of control
T/C (dose: 14.0 mg/kg/injection, schedule: Q01DX009 (ip), vehicle: Klucel (hydroxypropylcellulose) (HPC)): 91 % of control
T/C (dose: 18.75 mg/kg/injection, schedule: Q04DX003 (ip), vehicle: Klucel (hydroxypropylcellulose) (HPC)): 265 % of control and 268 % of control and 272 % of control
T/C (dose: 28.12 mg/kg/injection, schedule: Q04DX003 (ip), vehicle: Klucel (hydroxypropylcellulose) (HPC)): 300 % of control
T/C (dose: 37.5 mg/kg/injection, schedule: Q01DX009 (ip), vehicle: Klucel (hydroxypropylcellulose) (HPC)): 90 % of control
T/C (dose: 37.5 mg/kg/injection, schedule: Q04DX003 (ip), vehicle: Klucel (hydroxypropylcellulose) (HPC)): 113 % of control
